The test system of this test is nude mice, LX-1 lung xenograft intrarenal, tumor weight T/C. The test can be described thus: NCI In Vivo Anticancer Drug Screen. Data for tumor model Human Lung LX-1 Xenograft (intrarenal inoculation) in NU/NU Swiss (nude) mice. As to conditions: endpoint: mean tumor weight change, higher = larger tumour. The essentials:
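In vivo, transplantable tumor; compound vs vehicle arms; tumor size measured; value = T/C.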

Where [1] appears, read: dose: 100.0 mg/kg/injection, schedule: Q01DX010 (sc), vehicle: saline.
[2] abbreviates: dose: 200.0 mg/kg/injection, schedule: Q01DX010 (sc), vehicle: saline.
The mark [3] stands for this setting: dose: 75.0 mg/kg/injection, schedule: Q04DX003 (sc), vehicle: saline with Tween-80.
Setting [4] is: dose: 150.0 mg/kg/injection, schedule: Q04DX003 (sc), vehicle: saline with Tween-80.
Setting [5] is: dose: 300.0 mg/kg/injection, schedule: Q04DX003 (sc), vehicle: saline with Tween-80.
[6] abbreviates: dose: 400.0 mg/kg/injection, schedule: Q04DX003 (sc), vehicle: saline with Tween-80.
Where [7] appears, read: dose: 5.0 mg/kg/injection, schedule: Q04DX003 (sc), vehicle: saline.
Setting [8] is: dose: 1200.0 mg/kg/injection, schedule: Q04DX003 (sc), vehicle: saline with Tween-80.
The mark [9] stands for this setting: dose: 25.0 mg/kg/injection, schedule: Q01DX010 (sc), vehicle: Klucel (hydroxypropylcellulose) (HPC).
Where [10] appears, read: dose: 50.0 mg/kg/injection, schedule: Q01DX010 (sc), vehicle: Klucel (hydroxypropylcellulose) (HPC).

Data on 19 compounds can be found in PubChem BioAssay AID264 (DTP/NCI, 2004).

Where “and” joins values, the source holds several entries; their conditions need not be identical. Equal entries are not always repeated. Inconclusive results are not listed.

In the case of `O=NN(CCCl)C(=O)NC1CCCCC1`, the T/C (dose: 4.0 mg/kg/injection, schedule: Q01DX010 (ip), vehicle: saline with Tween-80) was 101 % of control; the T/C (dose: 8.0 mg/kg/injection, schedule: Q01DX010 (ip), vehicle: saline with Tween-80) is 19 % of control; the T/C (dose: 8.0 mg/kg/injection, schedule: Q01DX010 (sc), vehicle: saline with Tween-80) is 112 % of control; the T/C (dose: 8.0 mg/kg/injection, schedule: Q04DX003 (sc), vehicle: carboxymethylcellulose (CMC)) is 64 % of control and 65 % of control; the T/C (dose: 12.5 mg/kg/injection, schedule: Q04DX003 (sc), vehicle: Klucel (hydroxypropylcellulose) (HPC)) is 35 % of control; the T/C (dose: 13.33 mg/kg/injection, schedule: Q04DX003 (ip), vehicle: saline with Tween-80) is 236 % of control. The T/C (dose: 16.0 mg/kg/injection, schedule: Q01DX010 (ip), vehicle: saline with Tween-80) was 11 % of control; the T/C (dose: 16.0 mg/kg/injection, schedule: Q01DX010 (sc), vehicle: saline with Tween-80) is 79 % of control; the T/C (dose: 26.65 mg/kg/injection, schedule: Q04DX003 (ip), vehicle: saline with Tween-80) was 152 % of control; the T/C (dose: 32.0 mg/kg/injection, schedule: Q01DX010 (sc), vehicle: saline with Tween-80) was -16 % of control; the T/C (dose: 32.0 mg/kg/injection, schedule: Q04DX003 (sc), vehicle: carboxymethylcellulose (CMC)) was 45 % of control and 52 % of control; the T/C (dose: 50.0 mg/kg/injection, schedule: Q04DX003 (sc), vehicle: Klucel (hydroxypropylcellulose) (HPC)) is 119 % of control. For the same compound, the T/C runs as follows: (dose: 53.33 mg/kg/injection, schedule: Q04DX003 (ip), vehicle: saline with Tween-80) -38 % of control; (dose: 64.0 mg/kg/injection, schedule: Q04DX003 (sc), vehicle: carboxymethylcellulose (CMC)) 10 % of control and 29 % of control.
On to `OCC1OC(n2cnc3c(Cl)ncnc32)C(O)C1O` (centres undefined), for which the T/C is, setting by setting: under setting [1], 74 % of control; under setting [2], 96 % of control and 103 % of control; (dose: 400.0 mg/kg/injection, schedule: Q01DX010 (sc), vehicle: saline) 80 % of control and 99 % of control; (dose: 800.0 mg/kg/injection, schedule: Q01DX010 (sc), vehicle: saline) 112 % of control.
Take `O=NN(CCCl)C(=O)NCCCl`: the T/C runs as follows: (dose: 4.0 mg/kg/injection, schedule: Q01DX010 (sc), vehicle: saline) 44 % of control and 51 % of control and 65 % of control; (dose: 7.5 mg/kg/injection, schedule: Q04DX003 (sc), vehicle: suspension in saline) 90 % of control; (dose: 8.0 mg/kg/injection, schedule: Q01DX010 (sc), vehicle: saline) 16 % of control and 17 % of control; (dose: 13.33 mg/kg/injection, schedule: Q04DX003 (sc), vehicle: saline) 9 % of control; (dose: 15.0 mg/kg/injection, schedule: Q04DX003 (sc), vehicle: suspension in saline) 31 % of control; (dose: 16.0 mg/kg/injection, schedule: Q01DX010 (sc), vehicle: saline) -75 % of control and -72 % of control and -67 % of control. Also, the T/C is, setting by setting: (dose: 26.65 mg/kg/injection, schedule: Q04DX003 (sc), vehicle: saline) -32 % of control; (dose: 30.0 mg/kg/injection, schedule: Q04DX003 (sc), vehicle: suspension in saline) 1 % of control; (dose: 32.0 mg/kg/injection, schedule: Q01DX010 (sc), vehicle: saline) -9 % of control and -3 % of control; (dose: 53.3 mg/kg/injection, schedule: Q04DX003 (sc), vehicle: saline) -84 % of control; (dose: 60.0 mg/kg/injection, schedule: Q04DX003 (sc), vehicle: suspension in saline) 16 % of control.
Consider `CS(=O)(=O)c1ncc(Br)cn1`, for which the T/C is, setting by setting: under setting [3], 100 % of control; under setting [4], 57 % of control; under setting [5], 84 % of control.
As to `Oc1c(Cl)cc(Cl)cc1C1N2CCCCC2C2c3cccn3-c3ccccc3N21` (centres undefined), the T/C by setting is: (dose: 150.0 mg/kg/injection, schedule: Q04DX003 (sc), vehicle: Klucel (hydroxypropylcellulose) (HPC)) 65 % of control; (dose: 300.0 mg/kg/injection, schedule: Q04DX003 (sc), vehicle: Klucel (hydroxypropylcellulose) (HPC)) 69 % of control; (dose: 1200.0 mg/kg/injection, schedule: Q04DX003 (sc), vehicle: Klucel (hydroxypropylcellulose) (HPC)) 74 % of control.
As for `CC(=O)N(C)C`, the T/C (dose: 450.0 mg/kg/injection, schedule: Q01DX010 (sc), vehicle: saline) was 70 % of control.
Regarding `BrC[P+](CBr)(CBr)CBr`, under setting [6], the T/C was 156 % of control.
With `C[CH2][Pb]([CH2]C)([CH2]C)[O]C(=O)COc1ccccc1`, the T/C reads like this: (dose: 9.0 mg/kg/injection, schedule: Q04DX003 (sc), vehicle: saline with Tween-80) 47 % of control; (dose: 18.0 mg/kg/injection, schedule: Q04DX003 (sc), vehicle: saline with Tween-80) 47 % of control.
As for `CCCCC(=O)OCC(=O)[C@]1(O)Cc2c(O)c3c(c(O)c2[C@@H](OC2CC(NC(=O)C(F)(F)F)C(O)C(C)O2)C1)C(=O)c1c(OC)cccc1C3=O` (some centres undefined), the T/C by setting is: (dose: 32.0 mg/kg/injection, schedule: Q01DX010 (sc), vehicle: distilled water + Tween-80) 84 % of control; (dose: 512.0 mg/kg/injection, schedule: Q01DX010 (sc), vehicle: distilled water + Tween-80) 5 % of control and 8 % of control and 26 % of control.
For `CC(C)CC(NC(=O)CF)C(=O)O` (centres undefined), the T/C is, setting by setting: under setting [7], 104 % of control; (dose: 10.0 mg/kg/injection, schedule: Q04DX003 (sc), vehicle: saline) 111 % of control; (dose: 20.0 mg/kg/injection, schedule: Q04DX003 (sc), vehicle: saline) 70 % of control.
In the case of `C[n+]1c(/C=N/NC(N)=S)ccc2ccccc21`, the T/C is 93 % of control under setting [5]; 101 % of control (dose: 600.0 mg/kg/injection, schedule: Q04DX003 (sc), vehicle: saline with Tween-80); 102 % of control under setting [8].
In the case of `O=c1n(CC2CO2)c(=O)n(CC2CO2)n1CC1CO1` (centres undefined), the T/C is 74 % of control (dose: 12.5 mg/kg/injection, schedule: Q04DX003 (sc), vehicle: saline) and 77 % of control (dose: 25.0 mg/kg/injection, schedule: Q04DX003 (sc), vehicle: saline).
`CC1=C(/C=C/C(C)=C/C=C/C(C)=C/C=O)C(C)(C)CCC1`: the T/C reads like this: under setting [3], 94 % of control; under setting [4], 68 % of control; under setting [5], 56 % of control and 74 % of control; under setting [8], 57 % of control.
Consider `NC(CSC(c1ccccc1)(c1ccccc1)c1ccccc1)C(=O)O` (centres undefined), for which the T/C is, setting by setting: under setting [9], 86 % of control; under setting [10], 155 % of control.
Turning to `O=C1NC(=O)C2C3C=CC(C12)C1C2C(=O)NC(=O)C2C31` (centres undefined), the T/C was 123 % of control (dose: 100.0 mg/kg/injection, schedule: Q04DX003 (sc), vehicle: saline with Tween-80); 84 % of control under setting [6]; 75 % of control (dose: 800.0 mg/kg/injection, schedule: Q04DX003 (sc), vehicle: saline with Tween-80); 105 % of control (dose: 1600.0 mg/kg/injection, schedule: Q04DX003 (sc), vehicle: saline with Tween-80).
Regarding `O=C(CCCN1CCC(O)(c2cccc(C(F)(F)F)c2)CC1)c1ccc(F)cc1`, the T/C (dose: 6.25 mg/kg/injection, schedule: Q01DX010 (sc), vehicle: Klucel (hydroxypropylcellulose) (HPC)) is 52 % of control; the T/C (dose: 12.5 mg/kg/injection, schedule: Q01DX010 (sc), vehicle: Klucel (hydroxypropylcellulose) (HPC)) was 96 % of control; the T/C under setting [9] is 60 % of control; the T/C under setting [10] was 45 % of control and 54 % of control.
On to `COC1C(O)CC(OC2CC(OC3CC(O[C@@H]4C(=O)c5c(cc6cc(OC7CC(OC8CC(O)C(O)C(C)O8)C(O)C(C)O7)c(C)c(O)c6c5O)C[C@H]4[C@H](OC)C(=O)[C@@H](O)[C@@H](C)O)OC(C)C3O)OC(C)C2O)OC1C` (some centres undefined), for which the T/C is, setting by setting: (dose: 0.18 mg/kg/injection, schedule: Q01DX010 (sc), vehicle: saline) 62 % of control; (dose: 0.37 mg/kg/injection, schedule: Q01DX010 (sc), vehicle: saline) 32 % of control.
On to `O=NN(CCCl)C(=O)NC1[C@H](O)CCC[C@@H]1O` (some centres undefined), for which, under setting [7], the T/C was 25 % of control and 30 % of control and 48 % of control.
Regarding `C[N+](C)(C)c1ncnc2nc[nH]c12`, the T/C reads like this: (dose: 50.0 mg/kg/injection, schedule: Q01DX010 (sc), vehicle: saline) 78 % of control; under setting [1], 116 % of control; under setting [2], 58 % of control.
